Experimental data reported in PMC9952520, “Anti-Biofilm Effects of Rationally Designed Peptides against Planktonic Cells and Pre-Formed Biofilm of Pseudomonas aeruginosa” (Antibiotics, 2023).
Ends that are not written are not given here.

What was measured:
[1] = test system: planktonic P. aeruginosa ATCC 27853; assay: Growth inhibition of planktonic cells in BHI; assay type: cell-based, Pseudomonas aeruginosa; settings: BHI broth, 24 h at 37 °C, OD600
Experimental: (§1) To investigate the growth inhibition of peptides and antibiotics against planktonic P. aeruginosa cells, a microdilution assay was applied. […] After 24 h incubation at 37 °C with agitation, the growth inhibition was calculated by the absorbance measurement of bacterial turbidity at 600 nm using a Microplate Reader (SpectraMax M5, Molecular Devices, Sunnyvale, CA, USA). The assay was performed in triplicate. The percentage of […] was calculated as follows:Growth inhibition (%) = 100 − ((OD600 in sample treatment − OD600 in untreated bacteria)/(OD600 in untreated sample − OD600 in untreated bacteria) × 100) Sample treatment: adding peptides or antibiotics in bacterial suspensions; untreated bacteria: culture medium without bacteria and samples; untreated sample: bacterial suspension without samples.

planktonic DRPa 4007 = assay: Growth inhibition of planktonic cells in BHI; assay type: cell-based, Pseudomonas aeruginosa; settings: BHI broth, 24 h at 37 °C, OD600
Experimental: as §1

[2] = test system: Drug-Sensitive P. aeruginosa (ATCC 27853); assay: microbe, parasite or virus in culture; assay type: cell-based, Pseudomonas aeruginosa; settings: microdilution, 10 mM sodium phosphate pH 7.2 + 20% MH broth, 24 h at 37 °C, turbidity OD600, triplicate
Experimental: (§2) Pseudomonas aeruginosa ATCC 27853 (drug-sensitive strain) was obtained from the American Type Culture Collection and drug-resistant P. aeruginosa (DRPa)-3904, 4830, 4891, 4007, and 5018 were isolated from patients with otitis media in a hospital. DRPa strains were obtained from GC Lab (Yongin-Si, Gyeonggi-do, Korea) for identification and antibiotic susceptibility testing. All strains were grown in a Mueller–Hinton (MH) broth containing 0.5% NaCl under an aerobic condition at 37 °C.
(§3) Pregrown bacteria were suspended in 10 mM sodium phosphate (SP, pH 7.2) supplemented with 20% MH broth. Evaluation of antibacterial effects in variable ionic strengths was performed with the following buffers: 10 mM HEPES, 10 mM NaCl, pH 7.4 + 10% MH (buffer I), 10 mM HEPES, 150 mM NaCl, pH 7.4 + 10% MH (buffer II), 10 mM HEPES, 5 mM MgCl2, pH 7.4 + 10% MH (buffer III), and 10 mM HEPES, 150 mM NaCl, 5 mM MgCl2, pH 7.4 + 10% MH (buffer IV). Fifty µL of the cell suspension (1 × 10^6 colony forming unit (CFU)/mL) was added to fifty µL of two-fold serially diluted peptide solutions and antibiotics (0.125–256 µM), followed by incubation for 24 h at 37 °C. The positive growth control was bacterial suspension without peptides and antibiotics and the negative control was only medium. MICs were evaluated by measuring the turbidity of cell solutions at OD600 and were defined as the lowest concentration of peptide or antibiotics that inhibited visible bacterial growth. The assays were performed in triplicate.

DRPa 4007 biofilm = assay: Inhibition of biofilm formation, crystal violet staining; assay type: cell-based; settings: Pseudomonas aeruginosa, BHI + 2% sucrose, 24 h at 37 °C, crystal violet OD570, triplicate
Experimental: (§4) Sucrose was added to enhance bacterial biofilm formation. Unattached bacteria were removed by washing with SP buffer and the remaining biofilm was fixed with methanol for 15 min. After air-drying for 30 min at room temperature, the plate was stained with 0.1% crystal violet (CV) for 5 min, followed by carefully washing with water and adding 95% ethanol to each well. The absorbance of the plate at 570 nm was measured using a Microplate Reader. The experiment was performed in triplicate and the percentage of biofilm inhibition was calculated as follows:Biofilm inhibition (%) = 100 − ((OD570 in sample treatment − OD570 in untreated bacteria)/(OD570 in untreated sample − OD570 in untreated bacteria) × 100) Sample treatment: adding peptides or antibiotics in bacterial suspensions; untreated bacteria: culture medium without bacteria and samples; untreated sample: bacterial suspension without samples.

[3] = test system: P. aeruginosa DRPa 4007 biofilm; assay: SEM analysis of biofilm on plastic coverslips; assay type: cell-based, Pseudomonas aeruginosa; settings: peptides 64 µM, ciprofloxacin 256 µM, 24 h on 48 h biofilm
Experimental: Figure 6 Image analysis of P. aeruginosa DRPa 4007 using scanning electron microscopy (SEM).
DRPa 4007 biofilms were formed on the plastic coverslips (12 mm dimension, SPL life science, Pocheon-si, Korea) for 48 h in BHI broth containing 2% (w/v) sucrose (1 × 10^8 CFU/mL) in a 24-well plate. […] The coverslips were rinsed using SP buffer and prefixed in 50 mM HEPES buffer (pH 8.0) containing 5% (v/v) glutaraldehyde for 2 h. After washing with SP buffer, they were dehydrated using the OTTIX shaper (Diapath S.p.A, Bergamo, Italy) and chemical-dried using hexamethyldisilazane. The coverslips coated with gold were observed under a field emission scanning electron microscopy (JSM-7100F, JEOL Ltd., Tokyo, Japan).

[4] = test system: Drug-Resistant P. aeruginosa (DRPa) 4007; assay: microbe, parasite or virus in culture; assay type: cell-based, Pseudomonas aeruginosa; settings: microdilution, 10 mM sodium phosphate pH 7.2 + 20% MH broth, 24 h at 37 °C, OD600, triplicate
Experimental: as §2, §3

[5] = test system: Drug-Resistant P. aeruginosa (DRPa) 3904; assay: microbe, parasite or virus in culture; assay type: cell-based, Pseudomonas aeruginosa; settings: microdilution, 10 mM sodium phosphate pH 7.2 + 20% MH broth, 24 h at 37 °C, OD600, triplicate
Experimental: as §2, §3

[6] = test system: Drug-Resistant P. aeruginosa (DRPa) 4830; assay: microbe, parasite or virus in culture; assay type: cell-based, Pseudomonas aeruginosa; settings: microdilution, 10 mM sodium phosphate pH 7.2 + 20% MH broth, 24 h at 37 °C, OD600, triplicate
Experimental: as §2, §3

[7] = test system: Drug-Resistant P. aeruginosa (DRPa) 5018; assay: microbe, parasite or virus in culture; assay type: cell-based, Pseudomonas aeruginosa; settings: microdilution, 10 mM sodium phosphate pH 7.2 + 20% MH broth, 24 h at 37 °C, OD600, triplicate
Experimental: as §2, §3

[8] = test system: Drug-Resistant P. aeruginosa (DRPa) 4891; assay: microbe, parasite or virus in culture; assay type: cell-based, Pseudomonas aeruginosa; settings: microdilution, 10 mM sodium phosphate pH 7.2 + 20% MH broth, 24 h at 37 °C, OD600, triplicate
Experimental: as §2, §3

[9] = test system: P. aeruginosa ATCC 27853 biofilm; assay: Inhibition of biofilm formation, crystal violet staining; assay type: cell-based, Pseudomonas aeruginosa; settings: BHI + 2% sucrose, 24 h at 37 °C, crystal violet OD570
Experimental: as §4

[10] = test system: Biofilm EPS of P. aeruginosa DRPa 4007; assay: Reduction of biofilm EPS components, fluorescent dyes and fluorescence microscopy; assay type: cell-based, Pseudomonas aeruginosa; settings: 64 µM, 24 h incubation; FITC-ConA, Nile red, DAPI, SYPRO red
Experimental: Figure 4 Eliminative action of peptides in biofilm extracellular polymeric substances (EPS). Biofilm EPS of P. aeruginosa DRPa 4007 in the absence or presence of peptides (64 µM) was stained by FITC-ConA for carbohydrates, Nile red for lipids, DAPI for nucleic acids, and SYPRO red for proteins and observed under fluorescence microscopy.
To investigate the eliminating ability of peptide, EPS components were analyzed using fluorescence microplate and microscopic analyses. After following the processes described in Section 3.7, the biofilm was washed with SP buffer and stained using four fluorescent dyes (DAPI for nucleic acids, Nile red for lipids, FITC-ConA for carbohydrates, and SYPRO red for proteins).

[11] = Pseudomonas aeruginosa, ATCC27853

Compound | MIC [4] [µM] | MIC [6] [µM] | further results
CC(C)(O/N=C(\C(=O)N[C@@H]1C(=O)N2C(C(=O)[O-])=C(C[n+]3ccccc3)CS[C@H]12)c1csc(N)n1)C(=O)O [Ceftazidime] | – | – | growth inhibition of planktonic cells [1]: at very low concentrations; antibacterial activity against planktonic cells (planktonic DRPa 4007): remarkably inhibited; MIC [2, 11]: 1 µM
O=C(O)c1cn(C2CC2)c2cc(N3CCNCC3)c(F)cc2c1=O [Ciprofloxacin] | – | – | growth inhibition of planktonic cells [1]: at very low concentrations; antibacterial activity against planktonic cells (planktonic DRPa 4007): remarkably inhibited; inhibition at 64 µM (DRPa 4007 biofilm): 2.3%; biofilm and bacteria on coverslip under SEM [3]: massive volume; MIC ([4]; Pseudomonas aeruginosa): > 256 µM; MIC [2, 11]: 1 µM; MIC ([5]; Pseudomonas aeruginosa): > 256 µM; MIC ([6]; Pseudomonas aeruginosa): 64 µM; MIC ([7]; Pseudomonas aeruginosa): > 256 µM; MIC ([8]; Pseudomonas aeruginosa): > 256 µM; inhibition of biofilm formation [9]: dose-dependent manner
CC[C@H](C)[C@H](NC(=O)CN)C(=O)NCC(=O)N[C@@H](C)C(=O)N[C@H](C(=O)N[C@@H](CC(C)C)C(=O)N[C@@H](CCCCN)C(=O)N[C@H](C(=O)N[C@@H](CC(C)C)C(=O)N[C@H](C(=O)N[C@H](C(=O)NCC(=O)N[C@@H](CC(C)C)C(=O)N1CCC[C@H]1C(=O)N[C@@H](C)C(=O)N[C@@H](CC(C)C)C(=O)N[C@H](C(=O)N[C@@H](CO)C(=O)N[C@@H](Cc1c[nH]c2ccccc12)C(=O)N[C@H](C(=O)N[C@@H](CCCCN)C(=O)N[C@@H](CCCNC(=N)N)C(=O)N[C@@H](CCCCN)C(=O)N[C@@H](CCCNC(=N)N)C(=O)N[C@@H](CCC(N)=O)C(=O)N[C@@H](CCC(N)=O)C(N)=O)[C@@H](C)CC)[C@@H](C)CC)[C@@H](C)O)[C@@H](C)O)C(C)C)C(C)C [Melittin] | 4 | 4 | MIC [2]: 2 µM; MIC [5]: 2 µM; MIC [7]: 4 µM; MIC [8]: 4 µM; removal of EPS components (carbohydrates, lipids, DNA, proteins) [10]: did not remove carbohydrates
NC[C@H]1O[C@H](O[C@H]2[C@H](O)[C@@H](O[C@H]3O[C@H](CO)[C@@H](O)[C@H](N)[C@H]3O)[C@H](N)C[C@@H]2N)[C@H](N)C[C@@H]1O [Tobramycin] | – | – | MIC [2, 11]: 0.25 µM
Cc1onc(-c2ccccc2)c1C(=O)N[C@@H]1C(=O)N2[C@@H]1SC(C)(C)[C@@H]2C(=O)O [oxacillin] | – | – | inhibition at 64 µM (DRPa 4007 biofilm): 3.4%; inhibition of biofilm formation [9]: dose-dependent manner
KKIIKKIIKKIWKW-NH2 [KIW-14] | 2 | 2 | –
KKIIKKIWKW-NH2 [KIW-10] | 16 | 16 | –
KKIWKKWIKI-NH2 [KWI-10] | 8 | 8 | –
KKIWKKWIKKIIKI-NH2 [KWI-14] | 1 | 2 | –
RRIIRRIWRW-NH2 [RIW-10] | 8 | 16 | –
RRIWRRWIRI-NH2 [RWI-10] | 8 | 4 | –
WIKKIWKKIIKEIK-NH2 [WIKE-14] | 8 | 8 | –
WIKKIWKKIIKKIK-NH2 [WIK-14] | 1 | 2 | –
WIKKIWKKIK-NH2 [WIK-10] | 8 | 8 | –
WIRRIWRRIR-NH2 [WIR-10] | 2 | 4 | –
